Source: patent US8344139B2, “Process for preparing crystalline polymorphic forms of (6R)-L-erythro-tetrahydrobiopterin dihydrochloride” (Merck Eprova AG, priority 2003, dated 2013)
“Also recorded” adds a separate entry of the source.

How the values were obtained:
[1] = Hygroscopicity / water adsorption (thermogravimetry, TG-FTIR); type: physicochemical; settings: for hygroscopicity / adsorbed water content: dihydrochloride; for adsorbed water content: water released on heating at 10° C./minute
Protocol: 1.05 gram of (6R)-L-erythro-tetrahydrobiopterin dihydrochloride are dissolved in 4.0 ml of bi-distilled water at 23±2° C. The solution is filtrated through a 0.22 μm millipore filtration unit and the filtrate is transferred into a 250 ml round flask. The solution in this flask is frozen by placing the flask into a bed with solid carbon dioxide at −78° C. The flask with the frozen content is then connected to a laboratory freeze dryer operating at a starting pressure of about 0.05 mbar. After about 20 hours the freeze drying is complete and the vacuum flask is disconnected from the freeze dryer and about 1.0 g of white, crystalline solid material is obtained. […] The sample begins to decompose above 200° C. TG-FTIR: Thermogravimetric measurements are carried out with a Netzsch Thermo-Micro-balance TG 209 coupled to a Bruker FTIR Spectrometer Vector 22 (sample pans with a pinhole, N2 atmosphere, heating rate 10 K/min).

[2] = Phase equilibration / suspension stability tests in solvents, solid form by FT Raman and X-ray diffraction; type: physicochemical; settings: room temperature
Protocol: 105 mg of polymorph A according to example A1 are suspended in 1.0 ml tertiary butyl methyl ether (TBME). The suspension is stirred under nitrogen atmosphere for about 18 hours at room temperature, filtrated and the white solid residue is then dried under air.
90 mg of polymorph A according to example A1 are suspended in 2.0 ml tetrahydrofuran (THF) and the resulting suspension is stirred in air for five days at room temperature, filtrated and the white solid residue is then dried under air.
The white suspension is stirred for 5 hours at room temperature, filtrated and dried under nitrogen at room temperature.
The white suspension is stirred over night at room temperature, filtrated and then dried under nitrogen at room temperature.
The white suspension is stirred over night at room temperature, filtrated and dried under nitrogen room temperature.
The white suspension is stirred in air over a weekend at room temperature, filtrated and then dried in air at room temperature. […] The white suspension is stirred for about 20 hours at room temperature, filtrated and dried in air at room temperature.
The suspension is stirred for about 20 hours at room temperature under nitrogen atmosphere, filtrated and then drying under nitrogen.
The suspension is stirred at room temperature under nitrogen atmosphere for about 23 hours, filtrated and dried in air.
105 mg of hydrate form D according to example B3 are suspended in 2.0 ml IPA. The suspension is stirred at room temperature for about 18 hours, filtered and the solid then dried in air at room temperature for about 4 hours.
Powder X-ray Diffraction (PXRD): PXRD is performed either on a Philips 1710 or on a Philips X'Pert powder X-ray diffractometer using CuKα radiation. D-spacings are calculated from the 2θ using the wavelength of the CuKα1 radiation of 1.54060 A. The X-ray tube was operated at a Voltage of 45 kV (or 40 kV with X'Pert Instrument), and a current of 45 mA (or 40 mA with X'Pert Instrument). A step size of 0.02°, and a counting time of 2.4 s per step is applied. Generally, 2θ values are within an error of ±0.1-0.2°. The experimental error on the d-spacing values is therefore dependent on the peak location.
Raman spectroscopy: FT-Raman spectra are recorded on a Bruker RFS 100 FT-Raman system with a near infrared Nd:YAG laser operating at 1064 nm and a liquid nitrogen-cooled germanium detector. For each sample, 64 scans with a resolution of 2 cm^−1 are accumulated. Generally; 300 mW laser power is used.

[3] = Storage of solid forms under defined relative humidity, resulting crystal form; type: physicochemical
Protocol: Hydrate form C is retained. 71 mg of polymorph form A according to example A1 are stored in air under 52% relative humidity at room temperature for 17 days. […] About 50 mg of polymorph form F according to example A26 are placed on an powder X-ray diffraction sample holder of 0.8 mm thickness (TTK type, obtained form Anton Pear GmbH, Graz, Austria). The prepared sample holder is placed in the closed sample chamber of a Philips X'Pert powder X-ray diffractometer and the sample chamber is purged with nitrogen and partially saturated with water vapour to a resulting relative humidity of about 52%. After an exposure time of about 24 hour a powder X-ray diffraction pattern is recorded.

[4] = Relative stability of the crystal forms as described; settings: for relative stability of the crystal form: dihydrochloride
[5] = 52% relative humidity, room temperature, 17 days, dihydrochloride

## C[C@H](O)[C@H](O)[C@H]1CNc2nc(N)[nH]c(=O)c2N1.Cl.Cl [form B, (6R)-L-erythro-tetrahydrobiopterin dihydrochloride]
[1]; listed as Polymorph B
  hygroscopicity: slightly hygroscopic
[2]; 2-Propanol, over night, nitrogen
  crystal form after suspension stirring: polymorph form B
[2]; EtOH in air, over a weekend
  crystal form after suspension stirring: slightly yellow crystalline solid, polymorph form B
[2]; EtOH, over night, nitrogen
  crystal form after suspension stirring: polymorph form B
[2]; THF, about 20 hours, nitrogen (slightly yellow solid from the EtOH/air test)
  crystal form after suspension stirring: slightly yellow crystalline solid, polymorph form B
[2]; acetone, over night, nitrogen
  crystal form after suspension stirring: polymorph form B
[2]; acetonitrile containing 2% by weight of water, about 20 hours, nitrogen
  crystal form after suspension stirring: polymorph form B
[2]; ethyl acetate containing 2% by weight of water, about 23 hours, nitrogen
  crystal form after suspension stirring: polymorph form B
[2]; methanol, 5 hours, nitrogen
  crystal form after suspension stirring: polymorph form B
[3]; open container under air, 75% relative humidity, 40° C., 5 days
  crystal form after storage: still polymorph form B

## C[C@H](O)[C@H](O)[C@H]1CNc2nc(N)[nH]c(=O)c2N1.Cl.Cl [form A, (6R)-L-erythro-tetrahydrobiopterin dihydrochloride]
[1]; listed as polymorph A
  hygroscopicity: slightly hygroscopic
  adsorbed water content: about 3 percent by weight
[1]; thermogravimetry, heating rate 10° C./minute
  temperature above which the sample begins to decompose: above 200 °C
[2]; tertiary butyl methyl ether, about 18 hours, nitrogen, dihydrochloride
  crystal form after suspension stirring: unchanged polymorph form A
[2]; tertiary butyl methyl ether, about 18 hours, nitrogen, listed as polymorph A, dihydrochloride
  crystal form after suspension stirring: essentially still corresponds to form A
[2]; tetrahydrofuran, five days, dihydrochloride
  crystal form after suspension stirring: unchanged polymorph form A
[2]; tetrahydrofuran, five days, listed as polymorph A, dihydrochloride
  crystal form after suspension stirring: still corresponds to form A
[3]; [5]
  crystal form after storage: corresponds to hydrate form E

## C[C@H](O)[C@H](O)[C@H]1CNc2nc(N)[nH]c(=O)c2N1.Cl.Cl [form I, (6R)-L-erythro-tetrahydrobiopterin dihydrochloride]
[1]
  hygroscopicity: hygroscopic

## C[C@H](O)[C@H](O)[C@H]1CNc2nc(N)[nH]c(=O)c2N1.Cl.Cl [form M, (6R)-L-erythro-tetrahydrobiopterin dihydrochloride]
[1]
  hygroscopicity: slightly hygroscopic

## C[C@H](O)[C@H](O)[C@H]1CNc2nc(N)[nH]c(=O)c2N1.Cl.Cl [form N, (6R)-L-erythro-tetrahydrobiopterin dihydrochloride]
[1]
  hygroscopicity: slightly hygroscopic

## C[C@H](O)[C@H](O)[C@H]1CNc2nc(N)[nH]c(=O)c2N1.Cl.Cl [form J, (6R)-L-erythro-tetrahydrobiopterin dihydrochloride]
[1]; listed as polymorph J
  hygroscopicity: slightly hygroscopic
[4]
  relative humidity at which the form transforms back into form E: above 75 % relative humidity

## C[C@H](O)[C@H](O)[C@H]1CNc2nc(N)[nH]c(=O)c2N1.Cl.Cl [form K, (6R)-L-erythro-tetrahydrobiopterin dihydrochloride]
[1]; listed as polymorph K
  hygroscopicity: slightly hygroscopic
  adsorbed water content: about 2.0 percent by weight
[4]; listed as polymorph K
  relative stability of the crystal form: less stable than form B at higher temperatures

## C[C@H](O)[C@H](O)[C@H]1CNc2nc(N)[nH]c(=O)c2N1.Cl.Cl [form G, (6R)-L-erythro-tetrahydrobiopterin dihydrochloride]
[1]
  hygroscopicity: hygroscopic

## C[C@H](O)[C@H](O)[C@H]1CNc2nc(N)[nH]c(=O)c2N1.Cl.Cl [form C, (6R)-L-erythro-tetrahydrobiopterin dihydrochloride]
[1]
  hygroscopicity: slightly hygroscopic
[4]; about 40° C. in air and lower relative humidity
  conversion of the crystal form: easily converted to polymorph form B
[3]; [5]
  crystal form after storage: retained

## C[C@H](O)[C@H](O)[C@H]1CNc2nc(N)[nH]c(=O)c2N1.Cl.Cl [form E, (6R)-L-erythro-tetrahydrobiopterin dihydrochloride]
[1]
  hygroscopicity: non-hygroscopic
[3]; [5]
  crystal form after storage: retained

## C[C@H](O)[C@H](O)[C@H]1CNc2nc(N)[nH]c(=O)c2N1.Cl.Cl [form F, (6R)-L-erythro-tetrahydrobiopterin dihydrochloride]
[1]; listed as polymorph F
  hygroscopicity: slightly hygroscopic
  adsorbed water content: about 3 percent by weight
[3]; nitrogen with water vapour, relative humidity about 52%, about 24 hour
  crystal form after exposure to humidity: crystalline form O

## C[C@H](O)[C@H](O)[C@H]1CNc2nc(N)[nH]c(=O)c2N1.Cl.Cl [form O, (6R)-L-erythro-tetrahydrobiopterin dihydrochloride]
[4]
  relative stability of the crystal form: more stable than form F under ambient temperature and humidity conditions

## C[C@H](O)[C@H](O)[C@H]1CNc2nc(N)[nH]c(=O)c2N1.Cl.Cl [form H, (6R)-L-erythro-tetrahydrobiopterin dihydrochloride]
[1]
  hygroscopicity: hygroscopic

## C[C@H](O)[C@H](O)[C@H]1CNc2nc(N)[nH]c(=O)c2N1.Cl.Cl [form D, (6R)-L-erythro-tetrahydrobiopterin dihydrochloride]
[1]
  hygroscopicity: slightly hygroscopic
[4]; ambient temperature
  stability on exposure to air humidity: stable
[4]
  relative stability of the crystal form: most stable one under the known hydrates at ambient temperatures and a relative humidity of less than 70%; also recorded: most stable form under the hydrates
[4]; listed as hydrate D
  relative stability of the crystal form: much higher stability than form C
[2]; IPA, about 18 hours
  crystal form after suspension stirring: unchanged hydrate form D
